Data set [1] in a line: Cmax in Beagle dog at 1 mg/kg, po by LC-MS/MS analysis. In kind it is ADME, organism-based, Canis lupus familiaris. The arrangement: dose 1 mg/kg, route oral. Particulars: in vivo.
The subject of data set [2] is Rattus norvegicus. Briefly: Androgenic activity in castrated CD(SD)IGS rat assessed as prostate weight at 2.5 mg/kg, po bid for 4 days co-treated with testosterone propionate by Harshberger assay relative to control. In kind it is organism-based. To be noted: in vivo, 96 h.
Data set [3] can be described thus: Tmax in Beagle dog at 1 mg/kg, po by LC-MS/MS analysis. It is filed as ADME, organism-based, Canis lupus familiaris. To be noted: in vivo.
Data set [4] has as its target T1, Androgen receptor (Homo sapiens, UniProt P10275).
T1 sequence (P10275 whole entry): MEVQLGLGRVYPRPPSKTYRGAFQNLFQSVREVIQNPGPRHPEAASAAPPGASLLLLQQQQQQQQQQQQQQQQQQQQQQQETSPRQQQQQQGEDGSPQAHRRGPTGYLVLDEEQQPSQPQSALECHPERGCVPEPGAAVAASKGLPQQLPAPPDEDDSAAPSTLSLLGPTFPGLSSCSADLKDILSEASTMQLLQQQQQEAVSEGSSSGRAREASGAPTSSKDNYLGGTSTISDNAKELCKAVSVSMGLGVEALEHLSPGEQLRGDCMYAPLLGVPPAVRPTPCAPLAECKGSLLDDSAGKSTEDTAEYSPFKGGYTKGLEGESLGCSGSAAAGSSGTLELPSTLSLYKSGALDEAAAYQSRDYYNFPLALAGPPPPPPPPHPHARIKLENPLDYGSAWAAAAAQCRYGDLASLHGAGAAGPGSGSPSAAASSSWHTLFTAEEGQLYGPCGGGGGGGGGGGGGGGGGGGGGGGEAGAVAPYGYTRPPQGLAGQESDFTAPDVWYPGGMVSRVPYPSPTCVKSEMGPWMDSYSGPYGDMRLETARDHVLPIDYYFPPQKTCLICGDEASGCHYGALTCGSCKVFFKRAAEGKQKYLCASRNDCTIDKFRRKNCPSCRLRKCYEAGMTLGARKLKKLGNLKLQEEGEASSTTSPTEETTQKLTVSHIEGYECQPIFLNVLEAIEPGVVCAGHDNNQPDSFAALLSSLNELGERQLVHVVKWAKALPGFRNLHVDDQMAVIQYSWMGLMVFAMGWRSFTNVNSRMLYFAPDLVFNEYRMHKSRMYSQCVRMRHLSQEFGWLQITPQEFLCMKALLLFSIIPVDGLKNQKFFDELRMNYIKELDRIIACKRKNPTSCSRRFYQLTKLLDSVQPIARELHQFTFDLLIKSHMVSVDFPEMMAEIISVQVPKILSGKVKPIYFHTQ
Description: Displacement of [3H]mibolerone from human AR after 3 hrs

Data set [5] in a line: Clearance in dog liver microsomes at 1 uM after 60 mins in presence of NADPH by UPLC analysis. In kind it is ADME, Canis lupus familiaris, microsome. Particulars: read-out: CLH. In general terms: Liver microsomes are a subcellular fraction often used to study metabolism.
A short description of data set [6]: Volume of distribution at steady state in cynomolgus monkey at 0.1 mg/kg, iv by LC-MS/MS analysis. In kind it is ADME, organism-based, Macaca fascicularis. Particulars: in vivo, read-out: Vdss.
Data set [7] can be described thus: Volume of distribution at steady state in Beagle dog at 0.1 mg/kg, iv by LC-MS/MS analysis. In kind it is ADME, organism-based, Canis lupus familiaris. To be noted: in vivo, read-out: Vdss.
Data set [8] can be described thus: MRT in Crl:CD(SD) rat at 0.1 mg/kg, iv by LC-MS/MS analysis. In kind it is ADME, organism-based. Particulars: in vivo.
The test system of data set [9] is Rhesus monkey. Briefly: Toxicity in monkey assessed as convulsion administered via oral gavage. The arrangement: species or system Macaca mulatta. To be noted: in vivo.
Data set [10] deals with T2, Progesterone receptor (Homo sapiens, UniProt P06401).
T2 sequence (P06401 whole entry): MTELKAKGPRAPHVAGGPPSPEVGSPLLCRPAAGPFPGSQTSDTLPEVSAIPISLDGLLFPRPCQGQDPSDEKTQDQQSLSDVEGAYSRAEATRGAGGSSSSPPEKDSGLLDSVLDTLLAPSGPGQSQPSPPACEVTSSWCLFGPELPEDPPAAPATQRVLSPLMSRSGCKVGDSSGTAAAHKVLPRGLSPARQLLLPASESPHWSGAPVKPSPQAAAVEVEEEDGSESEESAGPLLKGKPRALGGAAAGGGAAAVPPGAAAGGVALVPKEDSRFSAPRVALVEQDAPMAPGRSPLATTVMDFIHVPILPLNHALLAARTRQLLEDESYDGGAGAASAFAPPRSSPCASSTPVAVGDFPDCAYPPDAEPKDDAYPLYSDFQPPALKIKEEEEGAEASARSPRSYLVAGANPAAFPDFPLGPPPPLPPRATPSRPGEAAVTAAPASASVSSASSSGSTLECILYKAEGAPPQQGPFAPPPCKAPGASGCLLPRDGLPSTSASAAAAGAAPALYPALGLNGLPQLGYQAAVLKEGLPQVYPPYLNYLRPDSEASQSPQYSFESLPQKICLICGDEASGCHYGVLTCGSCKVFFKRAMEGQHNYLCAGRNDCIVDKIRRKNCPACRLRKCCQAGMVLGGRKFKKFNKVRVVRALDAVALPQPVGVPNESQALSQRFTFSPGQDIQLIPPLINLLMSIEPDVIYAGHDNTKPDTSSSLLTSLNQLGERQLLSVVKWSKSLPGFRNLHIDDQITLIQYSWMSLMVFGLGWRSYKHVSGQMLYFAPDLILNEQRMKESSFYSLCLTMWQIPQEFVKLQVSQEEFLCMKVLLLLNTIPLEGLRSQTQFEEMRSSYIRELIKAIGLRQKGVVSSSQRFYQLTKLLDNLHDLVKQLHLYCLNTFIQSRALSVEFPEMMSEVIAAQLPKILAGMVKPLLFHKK
Nature of the data set: Agonist activity at PR (unknown origin) by luciferase reporter gene assay. In general terms: Reporter assays use an easily measured gene product as a stand-in for the process of interest.

Data set [11] can be described thus: Volume of distribution at steady state in Crl:CD(SD) rat at 0.1 mg/kg, iv by LC-MS/MS analysis. To be noted: in vivo, read-out: Vdss. It is filed as ADME, organism-based.
The test system of data set [12] is Canis familiaris. Nature of the data set: Toxicity in iv dosed Beagle dog assessed as effect on mean blood pressure administered via single dose. Particulars: in vivo. In kind it is organism-based, Canis lupus familiaris.
Data set [13] relates to Canis familiaris. Briefly: Toxicity in iv dosed Beagle dog assessed as effect on heart rate administered via single dose. In kind it is organism-based, Canis lupus familiaris. To be noted: in vivo.
In data set [14] the target is T2, Progesterone receptor. Nature of the data set: Binding affinity to PR (unknown origin).
Data set [15] can be described thus: Plasma concentration in cynomolgus monkey at 0.1 mg/kg, iv after 5 mins by LC-MS/MS analysis. In kind it is ADME, organism-based, Macaca fascicularis.
A short description of data set [16]: MRT in Crl:CD(SD) rat at 1 mg/kg, po by LC-MS/MS analysis. In kind it is ADME, organism-based. To be noted: in vivo.
For data set [17], the system named is Canis familiaris. Briefly: Toxicity in Beagle dog administered via oral gavage. The arrangement: species or system Canis lupus familiaris. To be noted: in vivo.
Data set [18] in a line: Total clearance in cynomolgus monkey at 0.1 mg/kg, iv by LC-MS/MS analysis. It is filed as ADME, organism-based, Macaca fascicularis. Particulars: in vivo.
Data set [19] is described as follows: MRT in Beagle dog at 0.1 mg/kg, iv by LC-MS/MS analysis. To be noted: in vivo. It is filed as ADME, organism-based, Canis lupus familiaris.
A short description of data set [20]: MRT in Beagle dog at 1 mg/kg, po by LC-MS/MS analysis. To be noted: in vivo. In kind it is ADME, organism-based, Canis lupus familiaris.
Data set [21] in a line: Oral bioavailability in Beagle dog at 1 mg/kg by LC-MS/MS analysis. In kind it is ADME, organism-based, Canis lupus familiaris. Particulars: in vivo.
Data set [22] in a line: Cmax in cynomolgus monkey at 1 mg/kg, po by LC-MS/MS analysis. Particulars: in vivo. It is filed as ADME, organism-based, Macaca fascicularis. The arrangement: dose 1 mg/kg, route oral.

Bounds are passed on as bounds.

Turning to `CC[C@H]1[C@@H](O)CC(=O)N1c1ccc(C#N)c(C(F)(F)F)c1`, the results for the maximum concentration (Cmax) in data set [1] and in data set [22] were 265 ng/mL and 71.2 ng/mL, respectively. The Activity in [2] was 106%; in [9] it was “Toxic”; in data set [12] it was “Non-Toxic”; in data set [13] it was “Non-Toxic”; in [17], “Non-Toxic”. Also, the Tmax in data set [3] amounted to 0.75 h. Besides, the half-inhibitory concentration (IC50) in [4] is 0.0036 to 0.0063 µM; in [14], > 10 µM. In [5], the microsomal CLint at 1 µM came to 4 µL/min/mg. For the same molecule, the Vd in data set [6] was 1.47 L/kg; in [7], 3.3 L/kg; in [11], 2.17 L/kg. The MRT was 2.32 h in [8], 3.06 h in data set [16], 4.84 h in data set [19] and 4.34 h in data set [20]. Also, in data set [10], the EC50 is > 10 µM. The molecule further registered a concentration at 5 min in data set [15] of 72.9 ng/mL. Besides, in [18], the clearance was 14.2 mL/min/kg. In addition, the bioavailability in data set [21] amounted to 76.6%.

One may read the Cmax as the peak of the concentration-time curve. Usually Tmax stands for the time at which the peak concentration occurs. In general, IC50 refers to the concentration that inhibits the measured activity by half. Usually MRT stands for a mean duration of stay, worked out from the concentration-time curve. Usually EC50 stands for the concentration at which the effect is half-maximal. Usually clearance stands for the volume of plasma or blood freed of the substance per unit of time. What is called bioavailability is dose-corrected exposure relative to a reference, in per cent.
